Experiment: Blood lipid profiling, single-dose part (Supplementary Table 3)
Type: in vivo, human

In the case of `Cn1cnc(Cn2c(=O)[nH]/c(=N\c3cc4cn(C)nc4cc3Cl)n(Cc3cc(F)c(F)cc3F)c2=O)n1` [Ensitrelvir, ensitrelvir fumaric acid], the “Triglyceride, Mean (SD)” value (Cohort A 20 mg single dose, Day 2, baseline mean 0.8825) is reported as 1.0032 mmol/L, the “Cholesterol, Mean (SD)” value (Cohort A 20 mg single dose, Day 2, baseline mean 4.1635) is reported as 4.2842 mmol/L and the “HDL-C, Mean (SD)” value (Cohort A 20 mg single dose, Day 2, baseline mean 460.0) is reported as 458.3 (47.9) mg/L. For the same molecule, the “LDL-C, Mean (SD)” value (Cohort A 20 mg single dose, Day 2, baseline mean 993.3) was 1048.3 mg/L, the “Triglyceride, Mean (SD)” value (Cohort A 20 mg single dose, Day 4, baseline mean 0.8825) was 1.3643 mmol/L and the “Cholesterol, Mean (SD)” value (Cohort A 20 mg single dose, Day 4, baseline mean 4.1635) was 4.2668 mmol/L. For the same molecule, the “HDL-C, Mean (SD)” value (Cohort A 20 mg single dose, Day 4, baseline mean 460.0) was 446.7 (63.1) mg/L, the “LDL-C, Mean (SD)” value (Cohort A 20 mg single dose, Day 4, baseline mean 993.3) was 1026.7 mg/L and the “Triglyceride, Mean (SD)” value (Cohort A 20 mg single dose, Day 7/Early termination, baseline mean 0.8825) was 1.3852 mmol/L. The “Cholesterol, Mean (SD)” value (Cohort A 20 mg single dose, Day 7/Early termination, baseline mean 4.1635) was 4.1290 mmol/L, the “HDL-C, Mean (SD)” value (Cohort A 20 mg single dose, Day 7/Early termination, baseline mean 460.0) was 440.0 (66.9) mg/L and the “LDL-C, Mean (SD)” value (Cohort A 20 mg single dose, Day 7/Early termination, baseline mean 993.3) was 966.7 mg/L. For the same molecule, the “Triglyceride, Mean (SD)” value (Cohort A 20 mg single dose, Follow up, baseline mean 0.8825) was 0.7037 mmol/L, the “Cholesterol, Mean (SD)” value (Cohort A 20 mg single dose, Follow up, baseline mean 4.1635) was 3.9048 mmol/L and the “HDL-C, Mean (SD)” value (Cohort A 20 mg single dose, Follow up, baseline mean 460.0) was 445.0 (70.1) mg/L. The “LDL-C, Mean (SD)” value (Cohort A 20 mg single dose, Follow up, baseline mean 993.3) was 923.3 mg/L, the “Triglyceride, Mean (SD)” value (Cohort B 70 mg single dose, Day 2, baseline mean 1.0330) was 1.1478 mmol/L and the “Cholesterol, Mean (SD)” value (Cohort B 70 mg single dose, Day 2, baseline mean 4.0987) was 4.1463 mmol/L. The “HDL-C, Mean (SD)” value (Cohort B 70 mg single dose, Day 2, baseline mean 436.7) was 413.3 (42.7) mg/L, the “LDL-C, Mean (SD)” value (Cohort B 70 mg single dose, Day 2, baseline mean 995.0) was 1041.7 mg/L and the “Triglyceride, Mean (SD)” value (Cohort B 70 mg single dose, Day 4, baseline mean 1.0330) was 1.4170 mmol/L. The “Cholesterol, Mean (SD)” value (Cohort B 70 mg single dose, Day 4, baseline mean 4.0987) was 4.0515 mmol/L, the “HDL-C, Mean (SD)” value (Cohort B 70 mg single dose, Day 4, baseline mean 436.7) was 411.7 (52.3) mg/L and the “LDL-C, Mean (SD)” value (Cohort B 70 mg single dose, Day 4, baseline mean 995.0) was 946.7 mg/L. The “Triglyceride, Mean (SD)” value (Cohort B 70 mg single dose, Day 7/Early termination, baseline mean 1.0330) was 1.4393 mmol/L, the “Cholesterol, Mean (SD)” value (Cohort B 70 mg single dose, Day 7/Early termination, baseline mean 4.0987) was 3.8145 mmol/L and the “HDL-C, Mean (SD)” value (Cohort B 70 mg single dose, Day 7/Early termination, baseline mean 436.7) was 396.7 (60.2) mg/L. The “LDL-C, Mean (SD)” value (Cohort B 70 mg single dose, Day 7/Early termination, baseline mean 995.0) was 881.7 mg/L, the “Triglyceride, Mean (SD)” value (Cohort B 70 mg single dose, Follow up, baseline mean 1.0330) was 0.8882 mmol/L and the “Cholesterol, Mean (SD)” value (Cohort B 70 mg single dose, Follow up, baseline mean 4.0987) was 3.7368 mmol/L. The “HDL-C, Mean (SD)” value (Cohort B 70 mg single dose, Follow up, baseline mean 436.7) was 420.0 (55.1) mg/L, the “LDL-C, Mean (SD)” value (Cohort B 70 mg single dose, Follow up, baseline mean 995.0) was 873.3 mg/L and the “Triglyceride, Mean (SD)” value (Cohort C fasted state 250 mg single dose, Day 2 [Day 16], baseline mean 0.9596) was 1.3053 mmol/L. The “Cholesterol, Mean (SD)” value (Cohort C fasted state 250 mg single dose, Day 2 [Day 16], baseline mean 4.1053) was 3.8918 mmol/L, the “HDL-C, Mean (SD)” value (Cohort C fasted state 250 mg single dose, Day 2 [Day 16], baseline mean 486.3) was 376.3 (81.9) mg/L and the “LDL-C, Mean (SD)” value (Cohort C fasted state 250 mg single dose, Day 2 [Day 16], baseline mean 900.0) was 916.3 mg/L. The “Triglyceride, Mean (SD)” value (Cohort C fasted state 250 mg single dose, Day 4 [Day 18], baseline mean 0.9596) was 1.2235 mmol/L, the “Cholesterol, Mean (SD)” value (Cohort C fasted state 250 mg single dose, Day 4 [Day 18], baseline mean 4.1053) was 3.9695 mmol/L and the “HDL-C, Mean (SD)” value (Cohort C fasted state 250 mg single dose, Day 4 [Day 18], baseline mean 486.3) was 401.3 (66.4) mg/L. The “LDL-C, Mean (SD)” value (Cohort C fasted state 250 mg single dose, Day 4 [Day 18], baseline mean 900.0) was 942.5 mg/L, the “Triglyceride, Mean (SD)” value (Cohort C fasted state 250 mg single dose, Day 7 [Day 21]/Early termination, baseline mean 0.9596) was 1.0571 mmol/L and the “Cholesterol, Mean (SD)” value (Cohort C fasted state 250 mg single dose, Day 7 [Day 21]/Early termination, baseline mean 4.1053) was 4.0019 mmol/L. The “HDL-C, Mean (SD)” value (Cohort C fasted state 250 mg single dose, Day 7 [Day 21]/Early termination, baseline mean 486.3) was 438.8 (76.6) mg/L, the “LDL-C, Mean (SD)” value (Cohort C fasted state 250 mg single dose, Day 7 [Day 21]/Early termination, baseline mean 900.0) was 923.8 mg/L and the “Triglyceride, Mean (SD)” value (Cohort C fasted state 250 mg single dose, Follow up (n 4), baseline mean 0.9596) was 0.6295 mmol/L. The “Cholesterol, Mean (SD)” value (Cohort C fasted state 250 mg single dose, Follow up (n 4), baseline mean 4.1053) was 3.9760 mmol/L, the “HDL-C, Mean (SD)” value (Cohort C fasted state 250 mg single dose, Follow up (n 4), baseline mean 486.3) was 445.0 mg/L and the “LDL-C, Mean (SD)” value (Cohort C fasted state 250 mg single dose, Follow up (n 4), baseline mean 900.0) was 977.5 mg/L. The “Triglyceride, Mean (SD)” value (Cohort D 500 mg single dose, Day 2, baseline mean 0.7507) was 1.2928 mmol/L, the “Cholesterol, Mean (SD)” value (Cohort D 500 mg single dose, Day 2, baseline mean 4.2838) was 3.9005 mmol/L and the “HDL-C, Mean (SD)” value (Cohort D 500 mg single dose, Day 2, baseline mean 546.7) was 330.0 mg/L. For the same molecule, the “LDL-C, Mean (SD)” value (Cohort D 500 mg single dose, Day 2, baseline mean 990.0) was 951.7 mg/L, the “Triglyceride, Mean (SD)” value (Cohort D 500 mg single dose, Day 4, baseline mean 0.7507) was 1.1327 mmol/L and the “Cholesterol, Mean (SD)” value (Cohort D 500 mg single dose, Day 4, baseline mean 4.2838) was 3.8273 mmol/L. For the same molecule, the “HDL-C, Mean (SD)” value (Cohort D 500 mg single dose, Day 4, baseline mean 546.7) was 340.0 (74.8) mg/L, the “LDL-C, Mean (SD)” value (Cohort D 500 mg single dose, Day 4, baseline mean 990.0) was 950.0 mg/L and the “Triglyceride, Mean (SD)” value (Cohort D 500 mg single dose, Day 7/Early termination, baseline mean 0.7507) was 0.9937 mmol/L. For the same molecule, the “Cholesterol, Mean (SD)” value (Cohort D 500 mg single dose, Day 7/Early termination, baseline mean 4.2838) was 3.8103 mmol/L, the “HDL-C, Mean (SD)” value (Cohort D 500 mg single dose, Day 7/Early termination, baseline mean 546.7) was 421.7 (83.8) mg/L and the “LDL-C, Mean (SD)” value (Cohort D 500 mg single dose, Day 7/Early termination, baseline mean 990.0) was 928.3 mg/L. For the same molecule, the “Triglyceride, Mean (SD)” value (Cohort D 500 mg single dose, Follow up, baseline mean 0.7507) was 0.5627 mmol/L, the “Cholesterol, Mean (SD)” value (Cohort D 500 mg single dose, Follow up, baseline mean 4.2838) was 3.6505 mmol/L and the “HDL-C, Mean (SD)” value (Cohort D 500 mg single dose, Follow up, baseline mean 546.7) was 450.0 (85.1) mg/L. For the same molecule, the “LDL-C, Mean (SD)” value (Cohort D 500 mg single dose, Follow up, baseline mean 990.0) was 843.3 mg/L, the “Triglyceride, Mean (SD)” value (Cohort E 1000 mg single dose, Day 2, baseline mean 1.0275) was 2.3427 mmol/L and the “Cholesterol, Mean (SD)” value (Cohort E 1000 mg single dose, Day 2, baseline mean 4.1332) was 3.5257 mmol/L. For the same molecule, the “HDL-C, Mean (SD)” value (Cohort E 1000 mg single dose, Day 2, baseline mean 413.3) was 166.7 (45.5) mg/L, the “LDL-C, Mean (SD)” value (Cohort E 1000 mg single dose, Day 2, baseline mean 986.7) was 840.0 mg/L and the “Triglyceride, Mean (SD)” value (Cohort E 1000 mg single dose, Day 4, baseline mean 1.0275) was 1.9683 mmol/L. For the same molecule, the “Cholesterol, Mean (SD)” value (Cohort E 1000 mg single dose, Day 4, baseline mean 4.1332) was 3.2498 mmol/L, the “HDL-C, Mean (SD)” value (Cohort E 1000 mg single dose, Day 4, baseline mean 413.3) was 180.0 (52.5) mg/L and the “LDL-C, Mean (SD)” value (Cohort E 1000 mg single dose, Day 4, baseline mean 986.7) was 800.0 mg/L. The “Triglyceride, Mean (SD)” value (Cohort E 1000 mg single dose, Day 7/Early termination, baseline mean 1.0275) was 1.2210 mmol/L, the “Cholesterol, Mean (SD)” value (Cohort E 1000 mg single dose, Day 7/Early termination, baseline mean 4.1332) was 3.7628 mmol/L and the “HDL-C, Mean (SD)” value (Cohort E 1000 mg single dose, Day 7/Early termination, baseline mean 413.3) was 303.3 (61.5) mg/L. For the same molecule, the “LDL-C, Mean (SD)” value (Cohort E 1000 mg single dose, Day 7/Early termination, baseline mean 986.7) was 1003.3 mg/L, the “Triglyceride, Mean (SD)” value (Cohort E 1000 mg single dose, Follow up, baseline mean 1.0275) was 0.7565 mmol/L and the “Cholesterol, Mean (SD)” value (Cohort E 1000 mg single dose, Follow up, baseline mean 4.1332) was 3.7410 mmol/L. For the same molecule, the “HDL-C, Mean (SD)” value (Cohort E 1000 mg single dose, Follow up, baseline mean 413.3) was 343.3 (47.2) mg/L, the “LDL-C, Mean (SD)” value (Cohort E 1000 mg single dose, Follow up, baseline mean 986.7) was 988.3 mg/L and the “Triglyceride, Mean (SD)” value (Cohort J 2000 mg single dose, Day 2, baseline mean 0.9975) was 2.0737 mmol/L. The “Cholesterol, Mean (SD)” value (Cohort J 2000 mg single dose, Day 2, baseline mean 4.4608) was 3.9952 mmol/L, the “HDL-C, Mean (SD)” value (Cohort J 2000 mg single dose, Day 2, baseline mean 543.3) was 225.0 (76.6) mg/L and the “LDL-C, Mean (SD)” value (Cohort J 2000 mg single dose, Day 2, baseline mean 1051.7) was 901.7 mg/L. The “Triglyceride, Mean (SD)” value (Cohort J 2000 mg single dose, Day 4, baseline mean 0.9975) was 1.7668 mmol/L, the “Cholesterol, Mean (SD)” value (Cohort J 2000 mg single dose, Day 4, baseline mean 4.4608) was 3.4133 mmol/L and the “HDL-C, Mean (SD)” value (Cohort J 2000 mg single dose, Day 4, baseline mean 543.3) was 171.7 (55.6) mg/L. For the same molecule, the “LDL-C, Mean (SD)” value (Cohort J 2000 mg single dose, Day 4, baseline mean 1051.7) was 865.0 mg/L, the “Triglyceride, Mean (SD)” value (Cohort J 2000 mg single dose, Day 7/Early termination, baseline mean 0.9975) was 0.7867 mmol/L and the “Cholesterol, Mean (SD)” value (Cohort J 2000 mg single dose, Day 7/Early termination, baseline mean 4.4608) was 3.9437 mmol/L. The “HDL-C, Mean (SD)” value (Cohort J 2000 mg single dose, Day 7/Early termination, baseline mean 543.3) was 253.3 mg/L, the “LDL-C, Mean (SD)” value (Cohort J 2000 mg single dose, Day 7/Early termination, baseline mean 1051.7) was 1135.0 mg/L and the “Triglyceride, Mean (SD)” value (Cohort J 2000 mg single dose, Follow up, baseline mean 0.9975) was 0.4255 mmol/L. The “Cholesterol, Mean (SD)” value (Cohort J 2000 mg single dose, Follow up, baseline mean 4.4608) was 3.7112 mmol/L, the “HDL-C, Mean (SD)” value (Cohort J 2000 mg single dose, Follow up, baseline mean 543.3) was 405.0 (45.9) mg/L and the “LDL-C, Mean (SD)” value (Cohort J 2000 mg single dose, Follow up, baseline mean 1051.7) was 951.7 mg/L.

Source: paper PMC9578392, “Safety, Tolerability, and Pharmacokinetics of the Novel Antiviral Agent Ensitrelvir Fumaric Acid, a SARS-CoV-2 3CL Protease Inhibitor, in Healthy Adults” (Antimicrobial Agents and Chemotherapy, 2022)
